Measured values reported in patent US20260206796A1, “FEED COMPOSITIONS” (Solugen, Inc., priority 2023, published 2026).
Where a name gives a salt, the structure may show the parent alone.

What was measured:
Format in all cases: in vivo
freshwater shrimp = experiment: 10 week shrimp feeding trial with feed additives (phosphate level in tank water, survival); conditions: for Shrimp survival rate: over 10 weeks of feeding trial, 1.2% additive in diet
Excerpt: To validate if gluconates can be used as an acidulant additives in fish feed to increase shrimp's digestion and reduce phosphate discharge to aquaculture farm water, freshwater shrimp were fed with 1) regular shrimp diet as a control, 2) the same shrimp diet with 1.2% of an FIA, particularly gluconate, as disclosed herein and 3) the shrimp diet with 1.2% sodium citrate as an additive.
Phosphate reduction was equivalently high level to slightly better than citric acid up to 12.5 wt. %. This functionality of reducing phosphate level in discharged water from aquaculture farms is beneficial with respect to environmental regulations as aquaculture farmers are dealing with and the restrictions on the allowed phosphate level in the discharged water waste from aquaculture farms.

tilapia [1] = experiment: 2 month tilapia growth trial on soybean meal-based diets (growth, feed conversion, phosphorus discharge); conditions: additive 0.5 wt. % in diet; for Fecal phosphorus content compared to control diet: feces after 2 months on diets; for Phosphorus discharge (via urine) in the water compared to soybean based control diet: new clean water sampled after 4 hours
Excerpt: The efficacy of an FIA used as fish feed was investigated. The aim of this study was to assess the efficacy of (i) a feed comprising an FIA of the type disclosed herein (e.g., gluconate) on the growth, phosphorus discharge, biochemical composition and histopathology in tilapia when compared to (ii) a soybean meal-based diet that would have a similar formulation as commercial feeds or (iii) a soybean meal-based diet that includes an FIA of the type disclosed herein or sodium citrate, respectively. Sodium citrate was chosen because this is a competitive chelator and has in the past shown to improve phosphorus utilization/reduce phosphorus discharge in various aquatic animals.
To compare the efficacy of an FIA of the type disclosed herein, a total of 4 isonitrogenous and isolipidic diets were formulated to satisfy the nutritional requirements of tilapia. The crude protein and crude lipid content of the diets were all 32 wt. % and 8 wt. %, respectively. However, the percentages of proteins and supplements were altered to satisfy the aims of this study. Soybean meal was used across all diets. Diet 1 was the control with only soybean meal (cellulose at 0.5 wt. %).
The FIA appeared like packaging peanuts, and thus needed to be ground into a fine powder for the product to be adequately mixed in the diet. All diets were made using a pelleter and the pellets were dried in an oven at 60° C. and stored at −20° C. until use.
A total of 90 all male tilapia were equally distributed among 9 oval polyethylene tanks that ran on a recirculating system. Thus, all the fish shared the same water throughout the 2 month growth trial. After the fish were stocked, of approximately equal size, the tanks were randomly allocated their treatments in triplicate. For the first week, the tilapia were fed the control diet to acclimate them to the experimental conditions and then after a week were hand fed twice daily to apparent satiation on their respective experimental diets.
Throughout the study, excess waste was manually siphoned out of the system and water exchanges were provided weekly. Feed intake was recorded to later calculate the feed conversion ratio. Fish feces were collected, dried and measured for the phosphorus levels after 2 months.
(§1) After 2 months, all the fish were weighed to assess weight gain. Two fish/tank were sampled for liver and intestinal histopathology and the muscle sent out for biochemical analysis. The remaining fish were placed in new clean water and the water was sampled at 4 hours and measured for phosphorus levels mostly derived from urine.

tilapia [2] = experiment: Liver and intestinal histopathology of tilapia after 2 months on the diets; conditions: for Intestinal histopathology / Liver histopathology / hepatic toxicity: additive 0.5 wt. % in diet, hematoxylin and eosin staining
Protocol: as §1

O=C(O)[C@H](O)[C@@H](O)[C@H](O)[C@H](O)CO [gluconate]
Phosphate reduction compared to citric acid (freshwater shrimp; 1.2% additive in shrimp diet, vs citric acid additive diet): up to 12.5 wt. %
Phosphate reduction in tank water compared to control (regular shrimp diet) (freshwater shrimp; 1.2% additive in shrimp diet, vs control diet): up to 19 wt. %
Shrimp survival rate (freshwater shrimp): 75%
Fecal phosphorus content compared to control diet (tilapia [1]): significantly less
Phosphorus discharge (via urine) in the water compared to soybean based control diet (tilapia [1]): significantly less
Overall safety for consumption at the level tested (tilapia [2]; 0.5 wt. % in diet): safe for tilapia consumption
Intestinal histopathology (tilapia [2]): no such adverse effects
Liver histopathology / hepatic toxicity (tilapia [2]; listed as FIA): no hepatic toxicity
Liver histopathology / hepatic toxicity (tilapia [2]; listed as sugar oxidation product): normal sinusoid organization with clear central veins and intact and well dispersed pancreatic islets

O=C(O)CC(O)(CC(=O)O)C(=O)O [sodium citrate, reference compound]
Shrimp survival rate (freshwater shrimp): 58%
Fecal phosphorus content compared to control diet (tilapia [1]): significantly less
Phosphorus discharge (via urine) in the water compared to soybean based control diet (tilapia [1]): significantly less
Intestinal histopathology (tilapia [2]): inflammation of the intestinal villi and goblet cell hyperplasia
Liver histopathology / hepatic toxicity (tilapia [2]): varying degrees of hepatic lesions
Liver histopathology / hepatic toxicity (tilapia [2]; listed as Sodium citrate): hepatic toxicity based on both mild effects (localized inflammation) to severe (extensive necrosis, vacuolization and hemorrhaging)
Intestinal histopathology (tilapia [2]; listed as citrate): severe inflammation in goblet cell (gc) and the lamina propria (lp)
